The source of these data is patent US3946003A, “Hydroxy substituted phenylglycylamido-3-heterocyclic thiomethyl cephalosporins” (Eli Lilly and Company, priority 1974, dated 1976).

Values after ≈ are worked out from the molar mass of the structure shown.

Data set [1] is described as follows: Duration of antibiotic blood levels in mice after single oral dose (agar disc-plate assay, Sarcina lutea). The format is in vivo. As to conditions: mouse, single oral dose 20 mg./kg.; for concentration at 10 min: 10 min post administration; for concentration at 20 min: 20 min post administration; for concentration at 0.5 h: 30 min post administration; for concentration at 1 h: 60 min post administration; for concentration at 1.5 h: 90 min post administration; for concentration at 2 h: 120 min post administration; for Cmax: read-out: peak blood level. How it is done: The determinations were carried out in groups of 3 or 4 mice as indicated in the table and the results averaged. At the indicated time intervals post administration, blood samples were withdrawn at the orbital sinus from each mouse in the test group and assayed for the concentration of antibiotic. […]

In a further data set the test system is Escherichia coli. The experiment in a line: Antibacterial activity, MIC by Gradient-plate technique. The class given is cell-based. As to conditions: for MIC: read-out: Minimum Inhibitory Concentration. The source says:
(§1) The cephalosporin compounds of this invention (Formula I, R1 =H) are orally effective broad spectrum antibiotics which are useful in controlling infections caused by gram-positive and gram-negative bacteria. […] In Table I, below, the antibacterial activity of the compounds of formula I wherein R1 is hydrogen is illustrated. The bacteria are gram-negative bacteria and the activity is presented as minimum inhibitory concentrations in micrograms per milliliter (mcg./ml.). The activity was obtained by the Gradient-plate technique.

The next data set relates to Aerobacter aerogenes. The description is as above. The format is cell-based. As to conditions: for MIC: Klebsiella aerogenes, read-out: Minimum Inhibitory Concentration.
Description: as §1

For the next data set, the system named is Klebsiella pneumoniae. The data set is described as above. As to conditions: for MIC: read-out: Minimum Inhibitory Concentration. The format is cell-based.
Description: as §1

The next data set has as its system Pseudomonas aeruginosa. The data set is described as above. The class given is cell-based. As to conditions: for MIC: read-out: Minimum Inhibitory Concentration.
Description: as §1

In a further data set the test system is Serratia marcescens. The description is as above. The format is cell-based. As to conditions: for MIC: read-out: Minimum Inhibitory Concentration.
Description: as §1

The test system of the next data set is Salmonella heidelberg. Described as above. The format is cell-based. As to conditions: for MIC: Salmonella enterica, read-out: Minimum Inhibitory Concentration.
Description: as §1

The next data set has as its system Shigella sp. The description is as above. The class given is cell-based. As to conditions: for MIC: read-out: Minimum Inhibitory Concentration.
Description: as §1

Data set [2] deals with Streptococcus pyogenes C203. The experiment in a line: Oral therapy of experimental infections in mice. The format is in vivo. As to conditions: for ED50: Streptococcus pyogenes C203, mice, oral (gavage) at 1 and 5 hours post infection, read-out: Effective Dose (ED50). Here is the method:
(§2) In Table II, the respective effective doses (ED50) for these antibiotics is presented. The data were obtained in mice infected with the indicated microorganism following oral administration of the antibiotics at 1 and 5 hours post infection.
(§3) ^1 mg./kg. × 2 oral doses (gavage) at 1 and 5 hours post

In data set [3] the test system is Diplococcus pneumoniae Park I. The experiment in a line: Oral therapy of experimental infections in mice. As to conditions: Streptococcus pneumoniae, oral (gavage) at 1 and 5 hours post infection, read-out: Effective Dose (ED50). The format is in vivo. Here is the method: as §2, §3
The subject of another data set is Escherichia coli EC14. The experiment in a line: Oral therapy of experimental infections in mice. The format is in vivo. As to conditions: oral (gavage) at 1 and 5 hours post infection, read-out: Effective Dose (ED50). How it is done: as §2, §3
The next data set relates to Proteus mirabilis PR6. The experiment in a line: Oral therapy of experimental infections in mice. The format is in vivo. As to conditions: oral (gavage) at 1 and 5 hours post infection, read-out: Effective Dose (ED50). Here is the method:
as §2, §3

Another data set can be described thus: physchem. As to conditions: 6% dmf.

`Cn1nnnc1SCC1=C(C(=O)O)N2C(=O)[C@@H](NC(=O)[C@H](N)c3ccc(O)cc3)[C@H]2SC1` [compound 1, 7β-(4-hydroxyphenylglycylamido)-3-(1-methyl-1H-tetrazole-5-ylthiomethyl)-3-cephem-4-carboxylic acid]: the concentration at 10 min in data set [1] was determined as 2560 ng/mL. In data set [1], this compound came in with a concentration at 20 min of 5780 ng/mL. The compound also had a concentration at 0.5 h in data set [1] of 8550 ng/mL. Besides, the concentration at 1 h in data set [1] came out at 8880 ng/mL. The compound also returned a concentration at 1.5 h in data set [1] of 6940 ng/mL. The concentration at 2 h in data set [1] worked out at 5360 ng/mL. Further, the Cmax in [1] was around 8900 ng/mL. The MIC is 1 µg/mL (≈ 2.09 µM) in the data set on Escherichia coli; 0.7 µg/mL (≈ 1.47 µM) in the data set with Aerobacter aerogenes; 1 µg/mL (≈ 2.09 µM) in the data set with Klebsiella pneumoniae; above 200 µg/mL with Pseudomonas aeruginosa; 12.5 µg/mL (≈ 26.2 µM) in the data set on Serratia marcescens; 0.6 µg/mL (≈ 1.26 µM) in the data set on Salmonella heidelberg. In addition, the MIC in the data set on Shigella sp. came out at 0.8 µg/mL (≈ 1.68 µM). For the same compound, the ED50 in [2] was 0.18 mg/kg; in data set [3] it was below 1.1 mg/kg; in the data set with Escherichia coli EC14 it was 3.7 mg/kg; in the data set with Proteus mirabilis PR6, below 4.5 mg/kg.
With “7β-(D-4-hydroxyphenylglycylamido)-3-(1-methyl-1H-tetrazole-5-ylthiomethyl)-3-cephem-4-carboxylic acid”, the “Minimum Inhibitory Concentration” value is 0.9 µg/mL with Escherichia coli; 0.9 µg/mL in the data set on Aerobacter aerogenes; 0.6 µg/mL in the data set with Klebsiella pneumoniae; 120 µg/mL with Pseudomonas aeruginosa; 5.0 µg/mL with Serratia marcescens; 0.8 µg/mL with Salmonella heidelberg. Besides, in the data set with Shigella sp., the “Minimum Inhibitory Concentration” value was found to be 0.8 µg/mL.
In data set [1], `Cn1nnnc1SCC1=C(C(=O)O)N2C(=O)C(NC(=O)C(N)c3ccccc3)C2SC1` (stereo not drawn) [compound 2, reference compound] returned a concentration at 10 min of 260 ng/mL, a concentration at 20 min of 750 ng/mL, a concentration at 0.5 h of 1170 ng/mL and a concentration at 1 h of 890 ng/mL. Further, in data set [1], the concentration at 1.5 h was determined as 1090 ng/mL and the Cmax is around 1200 ng/mL. The ED50 in [2] is 4.05 mg/kg. The ED50 in the data set on Escherichia coli EC14 worked out at 8.4 mg/kg.
With `Cc1nnc(SCC2=C(C(=O)O)N3C(=O)[C@@H](NC(=O)[C@H](N)c4ccc(O)cc4)[C@H]3SC2)s1` [compound 3, 7β-(D-4-hydroxyphenylglycylamido)-3-(5-methyl-1,3,4-thiadiazol-2-ylthiomethyl)-3-cephem-4-carboxylic acid], the pKa in the data set “physchem” (pKa (first)) amounted to 4.4; in the data set “physchem” (pKa (second)), 7.6; in “physchem” (pKa (third)), 12.2. This compound yielded a concentration at 10 min in [1] of 10600 ng/mL. For the same compound, the concentration at 20 min in data set [1] turned out to be 13200 ng/mL. In addition, the concentration at 0.5 h in [1] is 13900 ng/mL. The concentration at 1 h in data set [1] is 14300 ng/mL. In data set [1], this compound showed a concentration at 1.5 h of 9800 ng/mL. Moreover, the concentration at 2 h in data set [1] worked out at 5200 ng/mL. Besides, the Cmax in [1] is around 14300 ng/mL. Further, the MIC is 2.5 µg/mL (≈ 5.06 µM) in the data set on Escherichia coli; 1 µg/mL (≈ 2.03 µM) in the data set on Aerobacter aerogenes; 1 µg/mL (≈ 2.03 µM) in the data set on Klebsiella pneumoniae; above 200 µg/mL in the data set with Pseudomonas aeruginosa; 47.5 µg/mL (≈ 96.2 µM) in the data set on Serratia marcescens; 1 µg/mL (≈ 2.03 µM) in the data set with Salmonella heidelberg. The MIC in the data set with Shigella sp. came out at 2 µg/mL (≈ 4.05 µM). Besides, the “ED50 times lower than that exhibited by compound No. 4” value in data set [2] (S. pyogenes infections in mice, 1.15/0.08) was “approximately 14 times”. Also, the “ED50 times lower than that exhibited by compound No. 2” value in data set [2] (S. pyogenes infections in mice, 4.05/0.08) is recorded as “approximately 50 times”. Further, the ED50 was 0.08 mg/kg in data set [2], below 1.1 mg/kg in data set [3], 2.1 mg/kg in the data set with Escherichia coli EC14 and below 4.5 mg/kg with Proteus mirabilis PR6.
Turning to `Cc1nnc(SCC2=C(C(=O)O)N3C(=O)C(NC(=O)C(N)c4ccccc4)C3SC2)s1` (stereo not drawn) [compound 4, reference compound], in data set [1], the concentration at 10 min amounted to 1980 ng/mL, the concentration at 20 min was 3380 ng/mL, the concentration at 0.5 h came out at 3990 ng/mL and the concentration at 1 h was 2340 ng/mL. In addition, in data set [1], the concentration at 1.5 h turned out to be 1610 ng/mL and the Cmax is around 4000 ng/mL. In [2], the ED50 was determined as 1.15 mg/kg. Further, the ED50 in data set [3] came out at 5.2 mg/kg. The ED50 with Escherichia coli EC14 was 6.9 mg/kg. In the data set with Proteus mirabilis PR6, the ED50 turned out to be 20.7 mg/kg.

By ED50 is commonly meant the midpoint of the dose-response relation. A word on the pKa: it is the negative logarithm of the acid dissociation constant. High values mean a group that holds its proton tightly, low ones a group that gives up its proton readily.
